Test results: PubChem BioAssay AID248 (DTP/NCI, 2004)
Where “and” joins values, the source holds several entries; their conditions need not be identical. Identical values can stand only once. Inconclusive results and toxic doses are left out.

System: L1210 leukemia ip in BDF1 mice, survival T/C
Assay: NCI In Vivo Anticancer Drug Screen. Data for tumor model L1210 Leukemia (intraperitoneal) in B6D2F1 (BDF1) mice
Details: endpoint: mean survival time, higher = longer survival
In short: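 Ratio derived from survival: compound-dosed mice over vehicle-dosed mice, all bearing a transplantable tumor.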

[1] = dose: 100.0 mg/kg/injection, schedule: Q04DX003 (ip), vehicle: saline
[2] = dose: 200.0 mg/kg/injection, schedule: Q04DX003 (ip), vehicle: saline
[3] = dose: 400.0 mg/kg/injection, schedule: Q04DX003 (ip), vehicle: saline
[4] = dose: 100.0 mg/kg/injection, schedule: Q01DX009 (ip), vehicle: saline
[5] = dose: 200.0 mg/kg/injection, schedule: Q01DX009 (ip), vehicle: saline
[6] = dose: 50.0 mg/kg/injection, schedule: Q01DX009 (ip), vehicle: saline with Tween-80
[7] = dose: 100.0 mg/kg/injection, schedule: Q01DX009 (ip), vehicle: saline with Tween-80
[8] = dose: 200.0 mg/kg/injection, schedule: Q01DX009 (ip), vehicle: saline with Tween-80
[9] = dose: 12.5 mg/kg/injection, schedule: Q01DX009 (ip), vehicle: saline with Tween-80
[10] = dose: 25.0 mg/kg/injection, schedule: Q01DX009 (ip), vehicle: saline with Tween-80
[11] = dose: 100.0 mg/kg/injection, schedule: Q04DX003 (ip), vehicle: saline with Tween-80
[12] = dose: 200.0 mg/kg/injection, schedule: Q04DX003 (ip), vehicle: saline with Tween-80

CCC1(O)CC(OC2CC(NC)C(OC3CC(O)C(OC4CC(O)C(O)C(C)O4)C(C)O3)C(C)O2)c2c(cc3c(c2O)C(=O)c2c(O)ccc(O)c2C3=O)C1C(=O)OC (stereo not given)
T/C (dose: 1.6 mg/kg/injection, schedule: Q01DX001 (ip), vehicle: saline): 101 % of control | T/C (dose: 3.2 mg/kg/injection, schedule: Q01DX001 (ip), vehicle: saline): 108 % of control | T/C (dose: 6.4 mg/kg/injection, schedule: Q01DX001 (ip), vehicle: saline): 124 % of control | T/C (dose: 12.8 mg/kg/injection, schedule: Q01DX001 (ip), vehicle: saline): 117 % of control | T/C (dose: 25.6 mg/kg/injection, schedule: Q01DX001 (ip), vehicle: saline): 114 % of control

CCOC(=O)C(CC(C)C)NC(=O)C(N)Cc1ccc(N(CCCl)CCCl)cc1 (stereo not given)
T/C (dose: 2.5 mg/kg/injection, schedule: Q01DX009 (ip), vehicle: water): 116 % of control

CCOC(CCCN=CN(C)C)OCC
T/C [1]: 102 % of control | T/C [2]: 100 % of control | T/C [3]: 102 % of control

Cc1ccccc1Nc1c(C)cccc1C(=O)O
T/C [4]: 100 % of control | T/C [5]: 92 % of control | T/C (dose: 400.0 mg/kg/injection, schedule: Q01DX009 (ip), vehicle: saline): 86 % of control

O=C1OC(c2ccccc2)(c2ccccc2)c2sccc21
T/C [6]: 91 % of control | T/C [7]: 102 % of control | T/C [8]: 94 % of control

OCCN1CCN(CCCN2c3ccccc3Sc3ccc(C(F)(F)F)cc32)CC1
T/C (dose: 0.09 mg/kg/injection, schedule: Q01DX009 (ip), vehicle: Klucel (hydroxypropylcellulose) (HPC)): 109 % of control | T/C (dose: 0.12 mg/kg/injection, schedule: Q01DX009 (ip), vehicle: acetone): 107 % of control | T/C (dose: 0.19 mg/kg/injection, schedule: Q01DX009 (ip), vehicle: Klucel (hydroxypropylcellulose) (HPC)): 97 % of control | T/C (dose: 0.25 mg/kg/injection, schedule: Q01DX009 (ip), vehicle: acetone): 106 % of control | T/C (dose: 0.39 mg/kg/injection, schedule: Q01DX009 (ip), vehicle: Klucel (hydroxypropylcellulose) (HPC)): 120 % of control | T/C (dose: 0.39 mg/kg/injection, schedule: Q01DX009 (ip), vehicle: saline): 97 % of control | T/C (dose: 0.39 mg/kg/injection, schedule: Q04DX003 (ip), vehicle: saline): 101 % of control | T/C (dose: 0.5 mg/kg/injection, schedule: Q01DX009 (ip), vehicle: acetone): 112 % of control | T/C (dose: 0.58 mg/kg/injection, schedule: Q01DX009 (ip), vehicle: saline): 111 % of control | T/C (dose: 0.78 mg/kg/injection, schedule: Q01DX009 (ip), vehicle: Klucel (hydroxypropylcellulose) (HPC)): 101 % of control | T/C (dose: 0.78 mg/kg/injection, schedule: Q01DX009 (ip), vehicle: saline): 108 % of control | T/C (dose: 0.78 mg/kg/injection, schedule: Q04DX003 (ip), vehicle: saline): 97 % of control and 108 % of control | T/C (dose: 1.0 mg/kg/injection, schedule: Q01DX009 (ip), vehicle: acetone): 120 % of control | T/C (dose: 1.17 mg/kg/injection, schedule: Q01DX009 (ip), vehicle: saline): 108 % of control | T/C (dose: 1.25 mg/kg/injection, schedule: Q01DX009 (ip), vehicle: saline): 98 % of control | T/C (dose: 1.56 mg/kg/injection, schedule: Q01DX009 (ip), vehicle: Klucel (hydroxypropylcellulose) (HPC)): 92 % of control | T/C (dose: 1.56 mg/kg/injection, schedule: Q01DX009 (ip), vehicle: saline): 87 % of control | T/C (dose: 1.56 mg/kg/injection, schedule: Q04DX003 (ip), vehicle: saline): 97 % of control and 108 % of control | T/C (dose: 2.34 mg/kg/injection, schedule: Q01DX009 (ip), vehicle: saline): 97 % of control | T/C (dose: 3.12 mg/kg/injection, schedule: Q04DX003 (ip), vehicle: saline): 102 % of control and 101 % of control | T/C (dose: 4.68 mg/kg/injection, schedule: Q04DX003 (ip), vehicle: Klucel (hydroxypropylcellulose) (HPC)): 92 % of control | T/C (dose: 5.0 mg/kg/injection, schedule: Q01DX009 (ip), vehicle: saline): 94 % of control and 88 % of control | T/C (dose: 6.25 mg/kg/injection, schedule: Q04DX003 (ip), vehicle: saline): 100 % of control and 114 % of control and 112 % of control | T/C (dose: 6.6 mg/kg/injection, schedule: Q04DX003 (ip), vehicle: saline): 106 % of control | T/C (dose: 9.37 mg/kg/injection, schedule: Q04DX003 (ip), vehicle: Klucel (hydroxypropylcellulose) (HPC)): 107 % of control | T/C (dose: 10.0 mg/kg/injection, schedule: Q04DX003 (ip), vehicle: saline): 117 % of control | T/C (dose: 12.5 mg/kg/injection, schedule: Q04DX003 (ip), vehicle: saline): 107 % of control and 116 % of control | T/C (dose: 15.0 mg/kg/injection, schedule: Q04DX003 (ip), vehicle: saline): 117 % of control | T/C (dose: 50.0 mg/kg/injection, schedule: Q04DX003 (ip), vehicle: saline): 164 % of control

O=C(C[n+]1cccc(C(=O)NCc2ccccc2)c1)NCc1ccccc1
T/C (dose: 25.0 mg/kg/injection, schedule: Q01DX009 (ip), vehicle: saline sonified): 100 % of control | T/C (dose: 50.0 mg/kg/injection, schedule: Q01DX009 (ip), vehicle: saline sonified): 97 % of control | T/C (dose: 110.0 mg/kg/injection, schedule: Q01DX009 (ip), vehicle: saline sonified): 95 % of control

CC1CCCC(C)N1NC(=O)NCCCl (stereo not given)
T/C (dose: 100.0 mg/kg/injection, schedule: Q01DX009 (ip), vehicle: Klucel (hydroxypropylcellulose) (HPC)): 100 % of control | T/C (dose: 100.0 mg/kg/injection, schedule: Q04DX003 (ip), vehicle: Klucel (hydroxypropylcellulose) (HPC)): 100 % of control | T/C (dose: 200.0 mg/kg/injection, schedule: Q01DX009 (ip), vehicle: Klucel (hydroxypropylcellulose) (HPC)): 102 % of control | T/C (dose: 200.0 mg/kg/injection, schedule: Q04DX003 (ip), vehicle: Klucel (hydroxypropylcellulose) (HPC)): 100 % of control | T/C (dose: 400.0 mg/kg/injection, schedule: Q01DX009 (ip), vehicle: Klucel (hydroxypropylcellulose) (HPC)): 102 % of control | T/C (dose: 400.0 mg/kg/injection, schedule: Q04DX003 (ip), vehicle: Klucel (hydroxypropylcellulose) (HPC)): 97 % of control

CC(C)(C)c1ccc(N)cc1Br
T/C [9]: 95 % of control | T/C [10]: 93 % of control | T/C [6]: 97 % of control | T/C [11]: 92 % of control | T/C [12]: 96 % of control

C=Cc1ccc(N)cc1
T/C [6]: 90 % of control | T/C [11]: 87 % of control | T/C [8]: 93 % of control | T/C [12]: 90 % of control

COC(=O)C1OC1(C)c1ccc(C)cc1 (stereo not given)
T/C [7]: 92 % of control | T/C (dose: 400.0 mg/kg/injection, schedule: Q01DX009 (ip), vehicle: saline with Tween-80): 106 % of control

O=[N+]([O-])c1ccc(N/N=C2\C3CC(c4ccccc4)C2C(c2ccccc2)=C3c2ccccc2)c([N+](=O)[O-])c1 (stereo not given)
T/C [9]: 91 % of control | T/C [10]: 88 % of control | T/C [6]: 96 % of control | T/C [8]: 89 % of control

CCCCN(c1ccccc1)c1ncnc2c1cnn2C
T/C [6]: 100 % of control | T/C [7]: 102 % of control and 104 % of control | T/C [11]: 97 % of control | T/C [8]: 98 % of control and 105 % of control | T/C [12]: 96 % of control | T/C (dose: 400.0 mg/kg/injection, schedule: Q04DX003 (ip), vehicle: saline with Tween-80): 94 % of control

OC(c1ccccc1)(c1ccccc1)C1C(=C(c2ccccc2)c2ccccc2)C1c1ccccc1 (stereo not given)
T/C (dose: 100.0 mg/kg/injection, schedule: Q01DX001 (ip), vehicle: steriod suspending solution): 104 % of control | T/C (dose: 200.0 mg/kg/injection, schedule: Q01DX001 (ip), vehicle: steriod suspending solution): 93 % of control | T/C (dose: 400.0 mg/kg/injection, schedule: Q01DX001 (ip), vehicle: steriod suspending solution): 95 % of control

CCN(CC)CC(=O)NC(CCN(C)C)(c1cccc2ccccc12)C(C)C (stereo not given)
T/C (dose: 50.0 mg/kg/injection, schedule: Q01DX009 (ip), vehicle: saline): 94 % of control | T/C [4]: 112 % of control | T/C [1]: 105 % of control | T/C [5]: 100 % of control | T/C [2]: 105 % of control

CCOP(=O)(Cc1ccc(CP(=O)(OCC)OCC)cc1)OCC
T/C [1]: 105 % of control | T/C [2]: 97 % of control | T/C [3]: 101 % of control
